“And” between values parts separate entries of the source, which are not always exact repeats. Equal entries are not always repeated.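 Following 48 hours of exposure in 96-well plates, responses at five concentrations were used to interpolate endpoints linearly. At the GI50, growth is halved. TGI: concentration producing complete growth inhibition.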

TGI and GI50 data for 25 molecules are collected here from PubChem BioAssay (NCI).

Test in all cases: NCI-60 cell line screen, 48 h
Experiment [1] has as its system HS 578T breast.
Experiment [2] deals with A498 renal.
Experiment [3] concerns LOX IMVI melanoma.
Experiment [4] relates to IGROV1 ovarian.
Experiment [5] has as its system SK-MEL-5 melanoma.
Experiment [6] deals with SF-539 CNS.
The test system of experiment [7] is UACC-62 melanoma.
The test system of experiment [8] is NCI-H23 lung.
Experiment [9] has as its system U251 CNS.
The test system of experiment [10] is OVCAR-5 ovarian.

For `Clc1ccc(/C=C/c2nc(-c3ccc(Cl)cc3)cn3c2nc2ccccc23)cc1`, the TGI in experiment [1], in [2], in experiment [3], in experiment [4], in [5] and in experiment [6] was more than 100 µM each time. In addition, the TGI in experiment [7], in experiment [8], in experiment [9] and in experiment [10] was more than 100 µM each time.

Regarding `O=S(=O)(c1ccccc1)[C@@H]1[C@H]2C=C[C@](CS)(O2)[C@H]1S(=O)(=O)c1ccccc1`, the TGI in experiment [1], in experiment [2], in experiment [3], in experiment [4], in experiment [5] and in [7] was more than 100 µM in each case. Besides, the TGI in experiment [8], in experiment [9] and in [10] was more than 100 µM throughout.

In the case of `Oc1ccc(NCc2cc(O)ccc2O)cc1`, the TGI was more than 100 µM in experiment [1]; 60.1 µM in experiment [2]; 38 µM in experiment [3]; 34.2 µM in experiment [4]; 38.9 µM in experiment [5]; 56.4 µM in [6]. Moreover, the TGI was 29.3 µM in [7], 38.7 µM in experiment [8], 29.5 µM in experiment [9] and 35.9 µM in experiment [10].

As to `CCOC(=O)c1c(SC)nc(-c2ccc(Cl)cc2)sc1=N`, the TGI was more than 100 µM in [1]; more than 100 µM in experiment [2]; more than 100 µM in [3]; 54.5 µM in experiment [4]; 38.8 µM in experiment [5]; more than 100 µM in experiment [6]. In addition, the TGI in experiment [7] was more than 100 µM; in [8], 80.3 µM; in experiment [9], more than 100 µM; in experiment [10] it was more than 100 µM.

For the molecule `COc1cccc2c1C(=O)c1c(O)c3c(c(O)c1C2=O)C[C@@](O)(C(C)=O)C[C@@H]3OC1CC(N(C)C)C(O)C(C)O1` (stereo partly specified), the TGI in experiment [1] is 0.0011 µM. For the same molecule, the GI50 in experiment [2] is 0.139 µM and 0.0466 µM; in experiment [3], 0.00387 µM; in experiment [4], 0.0218 µM and < 0.0111 µM; in experiment [5] it was 0.0368 µM and < 0.0109 µM; in [6], 0.0173 µM; in experiment [7] it was 0.0372 µM and < 0.0115 µM. The GI50 was 0.0394 µM and < 0.0142 µM in experiment [8]; 0.0451 µM in experiment [9]; 0.0266 µM and 0.0147 µM in experiment [10].

In the case of `CC1C(O)[C@@]2(OC[C@@]34C(=O)CC5(O)[C@H](CCC6Cc7nc8c(nc7C[C@]65C)CC5CC[C@@H]6C7=C[C@H]9O[C@@]%10(O[C@@](C)(CO)C[C@@H]%10O)C(C)[C@@]9(O)[C@]7(C)[C@@H](O)CC6[C@]5(C)C8)C3=CC[C@H]4C2C)OC1(C)C` (stereo partly specified), the TGI in experiment [2] was 0.00105 µM; in experiment [3], 0.864 µM; in experiment [4], more than 3.55 µM; in experiment [5] it was 0.415 µM; in [6] it was 0.00487 µM; in [7], 0.00489 µM. Also, the results for the TGI in experiment [8], in experiment [9] and in experiment [10] were 0.435 µM, 0.101 µM and 0.0795 µM, respectively.

For the molecule `COc1cc(CCC(=O)O)c2cc3ccccc3cc2c1O`, the TGI was more than 100 µM in experiment [1]; 99.5 µM in experiment [2]; 53.5 µM in [3]; 41.1 µM in [4]; 28.4 µM in experiment [5]; 37.7 µM in experiment [7]. Besides, the values for the TGI in [8], in experiment [9] and in [10] were 51.6 µM, 29.9 µM and 45.9 µM, respectively.

Regarding `O=NN(CCCl)C(=O)Nc1ccc(Cl)c(Cl)c1`, the TGI in experiment [2], in [3], in experiment [4], in [5], in experiment [6] and in experiment [7] was more than 100 µM in each case. In addition, the TGI in experiment [8], in experiment [9] and in experiment [10] was more than 100 µM in each case.

On to `O=[N+]([O-])c1ccc(/C=N/n2c(CCc3n[nH]c(=S)n3/N=C/c3ccc([N+](=O)[O-])o3)n[nH]c2=S)o1`, for which the TGI in experiment [1] was 62.2 µM; in experiment [2], more than 100 µM; in experiment [3] it was 50.6 µM; in experiment [4], more than 100 µM; in experiment [5], 33.3 µM; in experiment [6] it was more than 100 µM. Besides, the TGI in experiment [8] was 34.7 µM; in [9] it was 50 µM; in [10] it was more than 100 µM.

With `O=C1CSc2sc(=S)sc2S1`, the TGI in experiment [2] was more than 78.6 µM; in experiment [3], more than 100 µM; in experiment [4], more than 100 µM; in [5], more than 100 µM; in experiment [6], more than 100 µM; in experiment [7] it was more than 100 µM. In addition, the TGI in experiment [8], in experiment [9] and in experiment [10] was more than 100 µM throughout.

On to `O=[P+](O)c1cccs1`, for which the TGI in experiment [2], in [3], in experiment [4], in experiment [5], in experiment [6] and in experiment [7] was more than 100 µM in each case. Moreover, the TGI in [8] and in experiment [9] was more than 100 µM each time.

In the case of `CC(C)(C)OC(=O)N1CCCC1C(=O)NCCNc1ccc(NCCNC(=O)C2CCCN2C(=O)OC(C)(C)C)c2c1C(=O)c1ccccc1C2=O` (stereo unspecified), the TGI in experiment [1] amounted to 69.5 µM; in experiment [3], 26.3 µM; in [4], 31.7 µM; in [6], 30.1 µM; in experiment [7], 23.8 µM; in experiment [8], 29.4 µM. Besides, the figures for the TGI in [9] and in experiment [10] were 44.6 µM and 30.6 µM, respectively.

Turning to `Cc1ccc(NC(=O)CC(=O)n2nc(-c3ccccc3)c(N=Nc3ccccc3C(=O)O)c2-c2ccccc2)cc1`, the TGI in experiment [3], in experiment [4], in experiment [5], in experiment [6], in [7] and in experiment [10] was more than 100 µM in each case.

As for `O=C(Nc1sccc1S(=O)(=O)c1ccc(Cl)cc1)c1ccc(Cl)cc1Cl`, the TGI in experiment [1], in [2], in experiment [3], in [4], in experiment [5] and in experiment [6] was more than 100 µM in each case. The TGI in [7], in [8], in experiment [9] and in [10] was more than 100 µM throughout.

Consider `C[As](C)SCC(NC(=O)CCC(N)C(=O)O)C(=O)NCC(=O)O.Cl.c1ccncc1` (stereo unspecified), for which the TGI in experiment [1] was 4.6 µM; in experiment [2], 3.44 µM; in experiment [3], 1.02 µM; in experiment [4], 6.18 µM; in experiment [5] it was 0.878 µM; in experiment [6] it was 2.09 µM. For the same molecule, the TGI in experiment [7] turned out to be 1.13 µM; in experiment [8] it was 2.7 µM; in [9] it was 5.58 µM; in experiment [10] it was 6.89 µM.

For the molecule `COC[C@@H]1Cc2cc(OC)c3c(c2[C@H](c2ccc(OC)c(OC)c2)[C@H]1COC)OCO3`, the TGI in [2], in experiment [3], in experiment [4], in experiment [6], in [7] and in experiment [8] was more than 100 µM each time. Besides, the TGI in [9] and in experiment [10] was more than 100 µM each time.

For `O=CNNC(=O)CSc1nc2ccc(I)cc2c(=O)n1Cc1ccccc1`, the TGI in experiment [1] was 87.8 µM; in experiment [2] it was more than 100 µM; in experiment [3] it was 69.1 µM; in experiment [4], more than 100 µM; in experiment [5] it was 38.2 µM; in experiment [6], more than 100 µM. The TGI was 47.6 µM in [7], 89.6 µM in experiment [8], more than 100 µM in [9] and more than 100 µM in experiment [10].

`COC1=CCC2=C(CCN(C(=O)C3CC3)C2Cc2ccc(OC)c(O)c2)C1` (stereo unspecified): the TGI in experiment [1], in experiment [2], in experiment [3], in experiment [4], in experiment [5] and in [6] was more than 100 µM each time. The TGI in experiment [7] is more than 100 µM; in experiment [8], 66.1 µM; in experiment [9] it was more than 100 µM; in experiment [10], more than 100 µM.

Turning to `O=CN(O)CC(=O)O.[Ni]`, the TGI in experiment [1], in experiment [2], in experiment [3], in [4], in [5] and in experiment [6] was more than 100 µM in each case. For the same molecule, the TGI in experiment [7], in experiment [8], in experiment [9] and in experiment [10] was more than 100 µM throughout.

Turning to `O=C1/C(=C/c2ccc3c(c2)OCO3)Sc2scc(-c3ccc(O)c(O)c3)[n+]21`, the TGI in experiment [1] was 72.6 µM; in experiment [4], 8.09 µM; in experiment [5], more than 22.4 µM; in experiment [6], 7.84 µM; in [7], 8.28 µM; in experiment [8], 9.29 µM. Besides, the TGI in [9] came to 37.9 µM; in experiment [10] it was 30.6 µM.

As to `CC(=O)C1=C(C)N(c2ccc(C)cc2)C2(O)C=CC(=O)C3=C(O)c4ccccc4C(=O)C312` (stereo unspecified), the TGI in experiment [1] was more than 100 µM; in experiment [2] it was 30.8 µM; in [3], more than 100 µM; in experiment [4], more than 100 µM; in experiment [5], 26.3 µM; in experiment [6], 97.6 µM. The TGI in experiment [7] came out at 27.4 µM; in experiment [8] it was 52.5 µM; in experiment [9] it was 69.6 µM; in [10] it was 56.2 µM.

Regarding `Nc1nccc2c1ncn2C1C=C(CO)C(O)C1O` (stereo unspecified), the GI50 was 335 µM in [3]; more than 1000 µM in experiment [4]; 711 µM in experiment [6]; 6.88 µM in experiment [7]; 269 µM in experiment [8]; 1.61 µM in experiment [9]. In addition, the TGI in experiment [3], in experiment [4], in experiment [5], in [6], in [7] and in experiment [8] was more than 1000 µM throughout. For the same molecule, the TGI is more than 1000 µM in experiment [9] and more than 54.1 µM in experiment [10].

Consider `CC(=O)OCC1OC(N2C(=O)CC(N)=Nc3ccccc32)C(OC(C)=O)C(OC(C)=O)C1OC(C)=O` (stereo unspecified), for which the TGI is more than 100 µM in experiment [1]; more than 100 µM in experiment [2]; more than 100 µM in experiment [3]; more than 100 µM in [4]; 46.8 µM in experiment [5]; 67.5 µM in [6]. Besides, the TGI in [7], in experiment [8], in experiment [9] and in [10] was more than 100 µM throughout.

For `CC(C)(C)C(=O)CC(=O)C(F)(F)C(F)(F)C(F)(F)F.CC(C)(C)C(=O)CC(=O)C(F)(F)C(F)(F)C(F)(F)F.CC(C)(C)C(=O)CC(=O)C(F)(F)C(F)(F)C(F)(F)F.[Er]`, the TGI in experiment [1], in [2], in experiment [3], in experiment [4], in [6] and in [7] was more than 100 µM each time. In addition, the TGI in [8], in [9] and in [10] was more than 100 µM throughout. Also, the GI50 in [2] is more than 100 µM.

For `CN(CCNC(=O)c1cn(C)c2c1ccc1cc(Cl)ccc12)CCNC(=O)c1cn(C)c2c1ccc1cc(Cl)ccc12`, the TGI in [1] was 4.25 µM; in experiment [2], 14.5 µM; in experiment [3] it was 34 µM; in experiment [4], 21.6 µM; in [5], more than 26.9 µM; in experiment [6], 9.35 µM. Besides, the TGI in experiment [7] was 10.8 µM; in experiment [8] it was 4.87 µM; in experiment [9] it was more than 100 µM; in [10], 4.41 µM.
